Reference: ChEMBL document CHEMBL1134038, “New triterpenes, myrrhanol A and myrrhanone A, from guggul-gum resins, and their potent anti-inflammatory effect on adjuvant-induced air-pouch granuloma of mice” (2001)

How the values were obtained:
Type in all cases: functional
Mus musculus [1] = organism: Mus musculus; experiment: Inhibitory dose required against angiogenesis (carmine content) tested for antiinflammatory activity in mice(parentheses value represents 95% confidence limits); conditions: read-out: ID50 (the source's name)
Mus musculus [2] = organism: Mus musculus; experiment: Inhibitory dose required against exudation (pouch fluid weight) tested for antiinflammatory activity in mice(parentheses value represents 95% confidence limits); conditions: read-out: ID50 (the source's name)
Mus musculus [3] = organism: Mus musculus; experiment: Inhibitory dose required against granuloma formation tested for antiinflammatory activity in mice(parentheses value represents 95% confidence limits); conditions: read-out: ID50 (the source's name)
Mus musculus [4] = experiment: Inhibitory effect on inflammatory process III (angiogenesis: carmine content) at a log dose of -6mol/kg, ip relative to hydrocortisone on adjuvant-induced air-pouch granulomas of mice
Mus musculus [5] = experiment: Inhibitory effect on inflammatory process IV (granuloma formation) at a log dose of -5.25mol/kg, ip relative to hydrocortisone on adjuvant-induced air-pouch granulomas of mice
Mus musculus [6] = experiment: Inhibitory effect on inflammatory process IV (granuloma formation) at a log dose of -5.6mol/kg, ip relative to hydrocortisone on adjuvant-induced air-pouch granulomas of mice
Mus musculus [7] = experiment: Anti-inflammatory effect on inflammatory process I (exudation: pouch fluid weight) at a log dose of -1.5g/kg, ip, in adjuvant-induced air-pouch granuloma of mice(*)
Mus musculus [8] = experiment: Anti-inflammatory effect on inflammatory process I (exudation: pouch fluid weight) at a log dose of -2.25g/kg, ip, in adjuvant-induced air-pouch granuloma of mice(*)
Mus musculus [9] = experiment: Anti-inflammatory effect on inflammatory process I (exudation: pouch fluid weight) at a log dose of -3g/kg, ip, in adjuvant-induced air-pouch granuloma of mice(*)
Mus musculus [10] = experiment: Anti-inflammatory effect on inflammatory process II (migration: inflammatory cell count) at a log dose of -1.5g/kg, ip, in adjuvant-induced air-pouch granuloma of mice(*)
Mus musculus [11] = experiment: Anti-inflammatory effect on inflammatory process II (migration: inflammatory cell count) at a log dose of -2.25g/kg, ip, in adjuvant-induced air-pouch granuloma of mice(*)
Mus musculus [12] = experiment: Anti-inflammatory effect on inflammatory process II (migration: inflammatory cell count) at a log dose of -3g/kg, ip, in adjuvant-induced air-pouch granuloma of mice(*)
Mus musculus [13] = experiment: Anti-inflammatory effect on inflammatory process III (angiogenesis: carmine content) at a log dose of -1.5g/kg, ip, in adjuvant-induced air-pouch granuloma of mice(*)
Mus musculus [14] = experiment: Anti-inflammatory effect on inflammatory process III (angiogenesis: carmine content) at a log dose of -2.25g/kg, ip, in adjuvant-induced air-pouch granuloma of mice(*)
Mus musculus [15] = experiment: Anti-inflammatory effect on inflammatory process III (angiogenesis: carmine content) at a log dose of -3g/kg, ip, in adjuvant-induced air-pouch granuloma of mice(*)
Mus musculus [16] = experiment: Anti-inflammatory effect on inflammatory process IV (granuloma formation) at a log dose of -1.5g/kg, ip, in adjuvant-induced air-pouch granuloma of mice(*)
Mus musculus [17] = experiment: Anti-inflammatory effect on inflammatory process IV (granuloma formation) at a log dose of -2.25g/kg, ip, in adjuvant-induced air-pouch granuloma of mice(*)
Mus musculus [18] = experiment: Anti-inflammatory effect on inflammatory process IV (granuloma formation) at a log dose of -3g/kg, ip, in adjuvant-induced air-pouch granuloma of mice(*)
Mus musculus [19] = experiment: Inhibitory effect on inflammatory process I (exudation: pouch fluid weight) at a log dose of -5.25mol/kg, ip relative to hydrocortisone on adjuvant-induced air-pouch granulomas of mice
Mus musculus [20] = experiment: Inhibitory effect on inflammatory process I (exudation: pouch fluid weight) at a log dose of -5.6mol/kg, ip relative to hydrocortisone on adjuvant-induced air-pouch granulomas of mice
Mus musculus [21] = experiment: Inhibitory effect on inflammatory process I (exudation: pouch fluid weight) at a log dose of -6mol/kg, ip relative to hydrocortisone on adjuvant-induced air-pouch granulomas of mice
Mus musculus [22] = experiment: Inhibitory effect on inflammatory process II (migration: inflammatory cell count) at a log dose of -5.25mol/kg, ip relative to hydrocortisone on adjuvant-induced air-pouch granulomas of mice
Mus musculus [23] = experiment: Inhibitory effect on inflammatory process II (migration: inflammatory cell count) at a log dose of -5.6mol/kg, ip relative to hydrocortisone on adjuvant-induced air-pouch granulomas of mice
Mus musculus [24] = experiment: Inhibitory effect on inflammatory process IV (granuloma formation) at a log dose of -6mol/kg, ip relative to hydrocortisone on adjuvant-induced air-pouch granulomas of mice
Mus musculus [25] = experiment: Weak anti-inflammatory and inflammatory effect on inflammatory process I (exudation: pouch fluid weight) at a log dose of -1.5g/kg, ip, in adjuvant-induced air-pouch granuloma of mice(**)
Mus musculus [26] = experiment: Weak anti-inflammatory and inflammatory effect on inflammatory process I (exudation: pouch fluid weight) at a log dose of -2.2g/kg, ip, in adjuvant-induced air-pouch granuloma of mice(**)
Mus musculus [27] = experiment: Weak anti-inflammatory and inflammatory effect on inflammatory process II (migration: inflammatory cell count) at a log dose of -1.5g/kg, ip, in adjuvant-induced air-pouch granuloma of mice(**)
Mus musculus [28] = experiment: Inhibitory effect on inflammatory process II (migration: inflammatory cell count) at a log dose of -6mol/kg, ip relative to hydrocortisone on adjuvant-induced air-pouch granulomas of mice
Mus musculus [29] = experiment: Weak anti-inflammatory and inflammatory effect on inflammatory process II (migration: inflammatory cell count) at a log dose of -2.2g/kg, ip, in adjuvant-induced air-pouch granuloma of mice(**)
Mus musculus [30] = experiment: Weak anti-inflammatory and inflammatory effect on inflammatory process II (migration: inflammatory cell count) at a log dose of -3g/kg, ip, in adjuvant-induced air-pouch granuloma of mice(**)
Mus musculus [31] = experiment: Weak anti-inflammatory and inflammatory effect on inflammatory process III (angiogenesis: carmine content) at a log dose of -1.5g/kg, ip, in adjuvant-induced air-pouch granuloma of mice(**)
Mus musculus [32] = experiment: Weak anti-inflammatory and inflammatory effect on inflammatory process III (angiogenesis: carmine content) at a log dose of -2.2g/kg, ip, in adjuvant-induced air-pouch granuloma of mice(**)
Mus musculus [33] = experiment: Weak anti-inflammatory and inflammatory effect on inflammatory process III (angiogenesis: carmine content) at a log dose of -3g/kg, ip, in adjuvant-induced air-pouch granuloma of mice(**)
Mus musculus [34] = experiment: Weak anti-inflammatory and inflammatory effect on inflammatory process IV (granuloma formation) at a log dose of -1.5g/kg, ip, in adjuvant-induced air-pouch granuloma of mice(**)
Mus musculus [35] = experiment: Weak anti-inflammatory and inflammatory effect on inflammatory process IV (granuloma formation) at a log dose of -2.2g/kg, ip, in adjuvant-induced air-pouch granuloma of mice(**)
Mus musculus [36] = experiment: Weak anti-inflammatory and inflammatory effect on inflammatory process IV (granuloma formation) at a log dose of -3g/kg, ip, in adjuvant-induced air-pouch granuloma of mice(**)
Mus musculus [37] = experiment: Inhibitory effect on inflammatory process III (angiogenesis: carmine content) at a log dose of -5.25mol/kg, ip relative to hydrocortisone on adjuvant-induced air-pouch granulomas of mice
Mus musculus [38] = experiment: Inhibitory effect on inflammatory process III (angiogenesis: carmine content) at a log dose of -5.6mol/kg, ip relative to hydrocortisone on adjuvant-induced air-pouch granulomas of mice
Mus musculus [39] = experiment: Weak anti-inflammatory and inflammatory effect on inflammatory process I (exudation: pouch fluid weight) at a log dose of -3g/kg, ip, in adjuvant-induced air-pouch granuloma of mice(**)
Mus musculus [40] = organism: Mus musculus; experiment: Inhibitory dose required against migration (inflammatory cell count) tested for antiinflammatory activity in mice(parentheses value represents 95% confidence limits); conditions: read-out: ID50 (the source's name)

C/C(=C\CC/C(C)=C/CC/C(C)=C/CC[C@@H]1[C@@]2(C)CC[C@H](O)C(C)(C)C2CC[C@@]1(C)O)CO (stereo partly specified)
ED50 (Mus musculus [1]): 2.8 µmol/kg | ED50 (Mus musculus [2]): 1.75 µmol/kg | ED50 (Mus musculus [3]): 5.83 µmol/kg | Relative amount (Mus musculus [4]): 87% | Relative amount (Mus musculus [5]): <50% | Relative amount (Mus musculus [6]): <75% | Relative amount (Mus musculus [7]): <15% | Relative amount (Mus musculus [8]): 35% | Relative amount (Mus musculus [9]): 45% | Relative amount (Mus musculus [10]): 60% | Relative amount (Mus musculus [11]): 65% | Relative amount (Mus musculus [12]): 80% | Relative amount (Mus musculus [13]): <50% | Relative amount (Mus musculus [14]): <52% | Relative amount (Mus musculus [15]): <63% | Relative amount (Mus musculus [16]): <55% | Relative amount (Mus musculus [17]): <65% | Relative amount (Mus musculus [18]): <70% | Relative amount (Mus musculus [19]): <5% | Relative amount (Mus musculus [20]): <20% | Relative amount (Mus musculus [21]): 70% | Relative amount (Mus musculus [22]): 115% | Relative amount (Mus musculus [23]): 90% | Relative amount (Mus musculus [24]): 85% | Relative amount (Mus musculus [25]): 25% | Relative amount (Mus musculus [26]): 27% | Relative amount (Mus musculus [27]): 65% | Relative amount (Mus musculus [28]): 105% | Relative amount (Mus musculus [29]): 70% | Relative amount (Mus musculus [30]): 100% | Relative amount (Mus musculus [31]): 50% | Relative amount (Mus musculus [32]): 65% | Relative amount (Mus musculus [33]): 75% | Relative amount (Mus musculus [34]): 60% | Relative amount (Mus musculus [35]): 62% | Relative amount (Mus musculus [36]): 80% | Relative amount (Mus musculus [37]): <30% | Relative amount (Mus musculus [38]): <47% | Relative amount (Mus musculus [39]): 100%

C/C(=C\CC/C(C)=C/CC/C(C)=C/CC[C@@H]1[C@@]2(C)CCC(=O)C(C)(C)C2CC[C@@]1(C)O)CO (stereo partly specified)
Relative amount (Mus musculus [4]): 105% | Relative amount (Mus musculus [7]): 60% | Relative amount (Mus musculus [8]): 65% | Relative amount (Mus musculus [9]): 75% | Relative amount (Mus musculus [10]): 70% | Relative amount (Mus musculus [11]): 85% | Relative amount (Mus musculus [12]): 95% | Relative amount (Mus musculus [13]): <50% | Relative amount (Mus musculus [14]): 83% | Relative amount (Mus musculus [15]): 83% | Relative amount (Mus musculus [16]): <55% | Relative amount (Mus musculus [17]): <68% | Relative amount (Mus musculus [18]): 80% | Relative amount (Mus musculus [21]): 90% | Relative amount (Mus musculus [24]): 75% | Relative amount (Mus musculus [25]): 250% | Relative amount (Mus musculus [26]): 225% | Relative amount (Mus musculus [27]): 175% | Relative amount (Mus musculus [28]): 75% | Relative amount (Mus musculus [29]): 170% | Relative amount (Mus musculus [30]): 85% | Relative amount (Mus musculus [31]): 180% | Relative amount (Mus musculus [32]): 185% | Relative amount (Mus musculus [33]): 90% | Relative amount (Mus musculus [34]): 100% | Relative amount (Mus musculus [35]): 100% | Relative amount (Mus musculus [36]): 65% | Relative amount (Mus musculus [39]): 70%

C[C@]12CCC(=O)C=C1CCC1[C@@H]2[C@@H](O)C[C@@]2(C)[C@H]1CC[C@]2(O)C(=O)CO (single isomer, unassigned) [HYDROCORTISONE]
ED50 (Mus musculus [1]): 22.1 µmol/kg | ED50 (Mus musculus [2]): 6.31 µmol/kg | ED50 (Mus musculus [3]): 29.2 µmol/kg | ED50 (Mus musculus [40]): 11.7 µmol/kg
